Reference: US7863310B2, “Kinase inhibitors” (Eli Lilly and Company, priority 2004, dated 2011)

Key:
[1] = system: Female Lewis rats, collagen induced arthritis; test: Rat Collagen Induced Arthritis Efficacy Model; type: in vivo; conditions: 30 mg/kg bid, PO, 14 days
Procedure: Female Lewis rats ((≅190 gm, Charles River Labs) are immunized with Bovine type II collagen (2 mg/ml) emulsified with an equal volume of adjuvant (aluminum hydroxide). […]. The rats are immunized with approximately […] of the emulsion intradermally on the back neat the base of the tail. All animals are re-immunized 7 days later according to the same protocol. The rats begin to develop arthritis (characterized by swell-ling and redness of one or both ankles) from 12 to 14 days after the first immunization. The rats are equally distributed into five treatment groups at the first signs of arthritis and treatment is initiated with each rat dosed bid for 14 days.
Ankle diameter is measured with calipers 5 days a week and recorded. Data is expressed as the area under the curve (AUC) generated from the composite inflammation scores and statistical analysis performed.

[2] = system: TNF-α; test: Effect on intra-articular LPS induced TNF-α in rat ankles; type: in vivo; conditions: female Lewis rats
Procedure: Intra-articular injection of LPS into rat ankles induces the synthesis of TNF-α, which can be measured in synovial lavage fluid. High levels of TNF-α are detectable within 2 hours. Since the joint is the site where arthritis develops, this model can rapidly determine whether an orally administered compound has an effect on an inflammatory response in the synovium.
Six female Lewis rats (150-200 g) are place in each treatment group. The animals are given vehicle (1% NaCarboxymethylcellulose-0.25% Tween 80) or Example 6 (1 mg/kg, 3 mg/kg, 10 mg/kg, and 30 mg/kg) orally. One hour later, 10 μl LPS (10 μg) is administered intra-articularly into the right ankle of each rat, while the left ankle receives 10 μL of saline. After two hours, each ankle is lavaged with 100 μL of saline. The lavage is collected and stored at −80° C. • Group#1: Vehicle (1% NaCMC-0.25% Tween 80, 1 mL, PO) • Group#2: Example 6 (free base) (1 mg/kg, 1 mL, PO) • Group#3: Example 6 (free base) (3 mg/kg, 1 mL, PO) • Group#4: Example 6 (free base) (10 mg/kg, 1 mL, PO) • Group#5: Example 6 (free base) (30 mg/kg, 1 mL, PO)
TNF-α was measured with a commercially available ELISA kit (R&D, RTA00). […] The TMED50=3 mg/kg for the compound of Example 6 in this assay.

With CC(C)Cn1c(N)nc2ccc(-c3[nH]c(-c4c(F)cccc4F)nc3-c3ccccc3)cc21 [Example 6, 1-(Isobutyl)-2-amino-6-(2-(2,6-difluorophenyl)-4-phenyl-1H-imidazol-5-yl)-1H-benzimidazole] the “reduced inflammation (AUC of composite inflammation scores, ankle diameter)” value [1] was 30% and the TMED50 ([2]; oral, intra-articular LPS induced TNF-α in synovial lavage fluid) was 3 mg/kg.
With CS(=O)(=O)O.C[C@@H](n1c(N)nc2ccc(-c3[nH]c(-c4c(F)cccc4F)nc3-c3ccccc3)cc21)C(C)(C)C [Example 78, 6-[2-(2,6-Difluorophenyl)-5-phenyl-3H-imidazol-4-yl]-1-(1-(R)-methyl-2,2-dimethylpropyl)-1H-benzimidazol-2-ylamine methanesulfonate] the “inhibition of TNF-α synthesis, as measured in the synovial lavage fluid” value ([2]; oral 1, 3, 10, 30 mg/kg, intra-articular LPS 10 μg one hour later, lavage after two hours, ELISA) was “dose-dependent inhibition”.
